From patent US11964973B2 (priority 2019, dated 2024)
Read-outs that look alike come from different tables or passages of the source.

Columns and labels:
Human DGKα(9-727) = Human DGKα(9-727) (Homo sapiens (Human), UniProt P23743); test: biochemical; settings: liposome (LIPGLO) assay; Table A; read-out: DGKα LIPGLO IC50
[1] = test system: human venous whole blood, CD8 positive population (pERK); test: DGK human whole blood pERK assay; assay type: cell-based; settings: for EC50: top concentration 20 μM
Method in brief: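 Read-out is the pERK-positive fraction of CD8+ cells measured by flow cytometry. Donor venous blood (heparin) saw compound for one hour at 37° C before a 15-minute anti-CD3 challenge (1 μg/mL final) with cross-linking anti-mouse IgG.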

full length human DGKζ = full length human DGKζ (Homo sapiens (Human), UniProt Q13574); test: In vitro DGK inhibition assay, Method B (DGKζ LIPGLO, extruded liposomes); assay type: biochemical
DGKα = DGKα (Homo sapiens (Human), UniProt P23743); test: biochemical; assay type: biochemical; settings: liposome (LIPGLO) assay; read-out: DGKα LIPGLO IC50
naïve human CD8 T cells = test: CellTiter-Glo CD8 T cell proliferation assay; assay type: cell-based; settings: Homo sapiens, read-out: CD8 GLO Normalized EC50
Method in brief: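 Thawed naïve human CD8 T cells (20 k/well) were stimulated with plate-bound anti-CD3 (0.1 μg/mL coating) and 0.5 μg/ml soluble anti-CD28, with compounds added right after plating. After 72 h at 37° C, proliferation was read by CellTiter-Glo luminescence. The signal from stimulated cells was taken as background.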

[2] = test system: Human venous whole blood (IFN-γ); test: Human whole blood IFN-γ assay; assay type: cell-based; settings: Homo sapiens, 24 h, human whole blood, anti-CD3 plus anti-CD28, 24 hours; read-out: INFg Whole Blood Normalized Agonist EC50
Method: Assay 10: Human Whole Blood IFN-γ Assay
Human venous whole blood (22.5 μL per well), obtained from healthy donors, was pre-treated with compounds for one hour at 37° C. in a humidified 95% air/5% CO2 incubator. The blood was stimulated with 2.5 μL anti-human CD3 and anti-CD28 mAb at a final concentration of 1 μg/mL each for 24 hours at 37° C. IFN-γ in the supernatants was measured using AlphLISA kit (Cat #AL217).

human DGKζ = human DGKζ (Homo sapiens (Human), UniProt Q13574); test: biochemical; assay type: biochemical; settings: liposome (LIPGLO) assay; read-out: DGKζ LIPGLO IC50
[3] = test system: OT-1 CD8+ T cells with SIINFEKL-loaded MC38 tumor cells; test: Murine cytotoxic T lymphocyte assay (IFN-γ); assay type: cell-based, mouse; settings: Mus musculus, MC-38; murine cytotoxic T lymphocyte, IFN-γ; read-out: msCTL INFg IC50
Source text: Assay 6: Murine Cytotoxic T Lymphocyte Assay
An antigen-specific cytolytic T-cell (CTL) assay was developed to evaluate functionally the ability of DGKα and DGKζ inhibitors to enhance effector T cell mediated tumor cell killing activity. CD8+ T-cells isolated from the OT-1 transgenic mouse recognize antigen presenting cells, MC38, that present the ovalbumin derived peptide […]. Recognition of the cognate antigen initiates the cytolytic activity of the OT-1 antigen-specific CD8+ T cells.
Functional CTL cells were generated as follows: OT-1 splenocytes from 8-12 week old mice were isolated and expanded in the presence of the […] peptide at 1 μg/mL and mIL2 at 10 U/mL. After three days, fresh media with […] was added. On day 5 of the expansion, the CD8+ T cells were isolated and ready for use. Activated CTL cells may be stored frozen for 6 months. Separately, one million MC38 tumor cells were pulsed with 1 μg/mL of […]-OVA peptide for 3 hours at 37° C. The cells were washed (3×) with fresh media to remove excess peptide. Finally, CTL cells that were pretreated with DGK inhibitors for 1 hour in a 96-well U bottom plate were combined with the antigen loaded MC38 tumor cells at a 1:10 ratio. The cells were then spun at 700 rpm for 5 min and placed in an incubator overnight at 37° C. After 24 hours, the supernatant was collected for analysis of IFN-γ cytokine levels by AlphaLisa purchased from Perkin Elmer.

[4] = human whole blood, CD8 positive population, anti-CD3 stimulation, read-out: DGK HWB (human whole blood pERK)
[5] = liposome (LIPGLO) assay, read-out: DGKζ LIPGLO IC50
[6] = read-out: DGK HWB (human whole blood pERK), human whole blood, CD8 positive population, anti-CD3 stimulation

Human DGKα(9-727), sequence (P23743 whole entry, looked up): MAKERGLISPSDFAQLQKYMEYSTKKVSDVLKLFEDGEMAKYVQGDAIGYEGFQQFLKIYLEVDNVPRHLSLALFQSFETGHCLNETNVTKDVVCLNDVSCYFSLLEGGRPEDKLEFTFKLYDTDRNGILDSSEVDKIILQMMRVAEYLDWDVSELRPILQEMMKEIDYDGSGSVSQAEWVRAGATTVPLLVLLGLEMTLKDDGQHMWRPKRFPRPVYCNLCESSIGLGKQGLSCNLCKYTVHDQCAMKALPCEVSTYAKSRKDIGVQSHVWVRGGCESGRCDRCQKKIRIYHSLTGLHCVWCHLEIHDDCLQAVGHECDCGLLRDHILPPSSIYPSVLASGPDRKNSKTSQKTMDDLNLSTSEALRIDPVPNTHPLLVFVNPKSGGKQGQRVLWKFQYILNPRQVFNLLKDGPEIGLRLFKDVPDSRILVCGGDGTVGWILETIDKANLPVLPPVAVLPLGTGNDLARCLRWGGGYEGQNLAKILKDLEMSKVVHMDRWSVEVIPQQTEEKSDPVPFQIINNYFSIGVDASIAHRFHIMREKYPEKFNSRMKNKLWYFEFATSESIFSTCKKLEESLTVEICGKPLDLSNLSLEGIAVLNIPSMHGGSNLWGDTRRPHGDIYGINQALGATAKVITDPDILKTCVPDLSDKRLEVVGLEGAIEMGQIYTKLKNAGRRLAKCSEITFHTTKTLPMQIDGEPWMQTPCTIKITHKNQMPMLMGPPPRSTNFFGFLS
full length human DGKζ, sequence (Q13574 whole entry, looked up): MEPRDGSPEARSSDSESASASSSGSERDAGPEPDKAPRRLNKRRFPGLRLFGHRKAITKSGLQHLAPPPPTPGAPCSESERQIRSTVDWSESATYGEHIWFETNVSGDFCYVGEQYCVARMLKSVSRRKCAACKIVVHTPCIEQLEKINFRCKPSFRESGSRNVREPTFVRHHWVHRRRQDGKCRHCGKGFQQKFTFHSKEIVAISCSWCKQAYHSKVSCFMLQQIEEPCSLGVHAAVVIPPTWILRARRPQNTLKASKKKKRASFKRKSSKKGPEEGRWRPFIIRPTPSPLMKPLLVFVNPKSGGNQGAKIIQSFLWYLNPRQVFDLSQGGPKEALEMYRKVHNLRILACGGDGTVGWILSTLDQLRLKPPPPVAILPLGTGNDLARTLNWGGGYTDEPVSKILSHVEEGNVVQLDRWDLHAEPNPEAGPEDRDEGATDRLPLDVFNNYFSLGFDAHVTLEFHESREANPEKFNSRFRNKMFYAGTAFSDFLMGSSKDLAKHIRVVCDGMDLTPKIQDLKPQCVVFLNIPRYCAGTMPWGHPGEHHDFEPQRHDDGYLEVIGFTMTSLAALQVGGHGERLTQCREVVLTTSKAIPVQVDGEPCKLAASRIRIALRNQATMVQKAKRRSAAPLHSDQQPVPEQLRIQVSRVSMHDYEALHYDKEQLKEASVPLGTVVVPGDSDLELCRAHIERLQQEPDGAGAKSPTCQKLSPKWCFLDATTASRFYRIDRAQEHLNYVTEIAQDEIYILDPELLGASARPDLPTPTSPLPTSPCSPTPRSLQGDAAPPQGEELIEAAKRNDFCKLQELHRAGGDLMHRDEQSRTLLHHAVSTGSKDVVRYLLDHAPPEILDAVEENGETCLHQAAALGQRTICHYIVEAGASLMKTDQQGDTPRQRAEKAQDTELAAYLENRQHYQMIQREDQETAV
DGKα, sequence (P23743 whole entry, looked up): as the sequence (P23743 whole entry, looked up) above
human DGKζ, sequence (Q13574 whole entry, looked up): as the sequence (Q13574 whole entry, looked up) above

Compound | IC50 (Human DGKα(9-727)) [µM] | EC50 [1, 4] [µM] | IC50 (full length human DGKζ; [5]) [µM] | further results
CC(C)O[C@@H]1CN(c2cc(=O)n(C)c3ccc(C#N)nc23)CC[C@H]1Oc1cccc(C(F)(F)F)c1 (relative stereo) [Example 396, trans-8-(3-Isopropoxy-4-(3-(trifluoromethyl)phenoxy)piperidin-1-yl)-5-methyl-6-oxo-5,6-dihydro-1,5-naphthyridine-2-carbonitrile] | 38 | 14 | 3.6 | –
CCO[C@H]1CN(c2cc(=O)n(C)c3ccc(C#N)nc23)CC[C@@H]1Oc1ccc(OC(C)C)cn1 (relative stereo) [Example 398, trans-8-(4-((5-Isopropoxypyridin-2-yl)oxy)-3-ethoxypiperidin-1-yl)-5-methyl-6-oxo-5,6-dihydro-1,5-naphthyridine-2-carbonitrile] | – | 2.8 | 1.2 | –
Cn1c(=O)cc(N2CC[C@@H](Oc3cccc(C(F)(F)F)c3)[C@H](OCCN3CCOCC3)C2)c2nc(C#N)ccc21 [Example 392, 5-methyl-8-((3R,4R)-3-(2-morpholinoethoxy)-4-(3-(trifluoromethyl)phenoxy)piperidin-1-yl)-6-oxo-5,6-dihydro-1,5-naphthyridine-2-carbonitrile] | 42 | – | 24 | EC50 [1, 6]: 13 µM
CCO[C@H]1CN(c2cc(=O)n(C)c3ccc(C#N)nc23)CC[C@@H]1Oc1ccc(OC(C)C)nn1 [Example 376, 8-((3S,4S)-3-ethoxy-4-((6-isopropoxypyridazin-3-yl)oxy)piperidin-1-yl)-5-methyl-6-oxo-5,6-dihydro-1,5-naphthyridine-2-carbonitrile] | – | – | 14 | EC50 ([1]; Homo sapiens, CD8 positive, read-out: DGK HWB (human whole blood pERK), human whole blood, CD8 positive population, anti-CD3 stimulation): 20 µM
CN(C)CCO[C@@H]1CN(c2cc(=O)n(C)c3ccc(C#N)nc23)CC[C@H]1Oc1cccc(C(F)(F)F)c1 [Example 385, 8-((3R,4R)-3-(2-(dimethylamino)ethoxy)-4-(3-(trifluoromethyl)phenoxy)piperidin-1-yl)-5-methyl-6-oxo-5,6-dihydro-1,5-naphthyridine-2-carbonitrile] | 100 | – | 130 | –
Cn1c(=O)cc(N2CC[C@@H](Oc3cccc(C(F)(F)F)c3)[C@H](OCC(F)(F)F)C2)c2nc(C#N)ccc21 [Example 393, 5-methyl-6-oxo-8-((3R,4R)-3-(2,2,2-trifluoroethoxy)-4-(3-(trifluoromethyl)phenoxy)piperidin-1-yl)-5,6-dihydro-1,5-naphthyridine-2-carbonitrile] | 1.1 | – | 0.38 | EC50 [1, 6]: 0.68 µM
C[C@@H]1CN(c2cc(=O)n(C)c3ccc(C#N)nc23)[C@@H](C)CC1N(C)C(=O)c1ccc(F)cc1 (single isomer, unassigned) [Example 283B] | 42 | – | – | IC50 (full length human DGKζ): 42 µM
CCO[C@H]1CN(c2cc(=O)n(C)c3ccc(C#N)nc23)CC[C@@H]1OCc1cccc(C(F)(F)F)c1 (single isomer, unassigned) [Example 382] | 17 | – | 130 | EC50 ([1]; Homo sapiens, CD8 positive, human whole blood, CD8 positive population, anti-CD3 stimulation, read-out: DGK HWB (human whole blood pERK)): 20 µM
CCO[C@H]1CN(c2cc(=O)n(C)c3ccc(C#N)nc23)CC[C@@H]1Oc1cnc(OC(C)C)cn1 [Example 378, 8-((3S,4S)-3-ethoxy-4-((5-isopropoxypyrazin-2-yl)oxy)piperidin-1-yl)-5-methyl-6-oxo-5,6-dihydro-1,5-naphthyridine-2-carbonitrile] | 7.7 | 10 | 5.2 | –
COCCO[C@@H]1CN(c2cc(=O)n(C)c3ccc(C#N)nc23)CC[C@H]1Oc1cccc(C(F)(F)F)c1 [Example 390, 8-((3R,4R)-3-(2-methoxyethoxy)-4-(3-(trifluoromethyl)phenoxy)piperidin-1-yl)-5-methyl-6-oxo-5,6-dihydro-1,5-naphthyridine-2-carbonitrile] | – | – | 1.9 | EC50 [1, 6]: 20 µM
CCO[C@H]1CN(c2nc(=O)n(C)c3ccc(C#N)nc23)CC[C@@H]1Oc1ccccc1 (relative stereo) [Example 403, trans-4-(3-Ethoxy-4-phenoxypiperidin-1-yl)-1-methyl-2-oxo-1,2-dihydropyrido[3,2-d] pyrimidine-6-carbonitrile] | 19 | – | 5.3 | EC50 [1, 6]: 11 µM
CCO[C@H]1CN(c2cc(=O)n(C)c3ccc(C#N)nc23)CC[C@@H]1Oc1ncc(OC(C)C)cn1 [Example 379, 8-((3S,4S)-3-ethoxy-4-((5-isopropoxypyrimidin-2-yl)oxy)piperidin-1-yl)-5-methyl-6-oxo-5,6-dihydro-1,5-naphthyridine-2-carbonitrile] | 0.58 | 7 | 3.1 | –
CCO[C@H]1CN(c2cc(=O)n(C)c3ccc(C#N)nc23)CC[C@@H]1Oc1ncc(OC(C)C)cn1 [Example 380, 8-((3S,4S)-3-ethoxy-4-((5-isopropoxypyrimidin-2-yl)oxy)piperidin-1-yl)-5-methyl-6-oxo-5,6-dihydro-1,5-naphthyridine-2-carbonitrile] | 1.3 | 20 | 14 | –
CCO[C@@H]1CN(c2nc(=O)n(C)c3ccc(C#N)nc23)CC[C@H]1Oc1ccc(OC(C)C)cn1 (relative stereo) [Example 400, trans-4-(3-Ethoxy-4-((5-isopropoxypyridin-2-yl)oxy)piperidin-1-yl)-1-methyl-2-oxo-1,2-dihydropyrido[3,2-d]pyrimidine-6-carbonitrile] | 6.1 | 9.2 | 0.7 | –
C[C@@H]1CN(c2cc(=O)n(C)c3ccc(C#N)nc23)[C@@H](C)CC1N(C)C(=O)c1ccc(F)cc1 (single isomer, unassigned) [Example 283A] | 26 | – | 14 | –
CCO[C@H]1CN(c2nc(=O)n(C)c3ccc(C#N)nc23)CC[C@@H]1Oc1ccc(C(F)(F)F)cc1 [Example 405, 4-((3S,4S)-3-ethoxy-4-(4-(trifluoromethyl)phenoxy)piperidin-1-yl)-1-methyl-2-oxo-1,2-dihydropyrido[3,2-d]pyrimidine-6-carbonitrile] | – | – | 14 | –
Cn1c(=O)c([N+](=O)[O-])c(N2CCC(Oc3ccc(OC(F)(F)F)cc3)CC2)c2nc(C#N)ccc21 [Example 51, 5-methyl-7-nitro-6-oxo-8-(4-(4-(trifluoromethoxy)phenoxy)piperidin-1-yl)-5,6-dihydro-1,5-naphthyridine-2-carbonitrile] | – | – | – | IC50 ([1]; human whole blood, CD8 positive population, read-out: DGK HWB pERK IC50): 2.5 µM; IC50 (DGKα): 0.23 µM; EC50 (naïve human CD8 T cells): 0.14 µM; EC50 [2]: 1.7 µM; IC50 (human DGKζ): 3 µM; IC50 [3]: 0.18 µM
Cn1c(=O)cc(N2CC[C@@H](Oc3cccc(C(F)(F)F)c3)[C@H](OCC(F)(F)F)C2)c2nc(C#N)ccc21 [Example 394, 5-methyl-6-oxo-8-((3R,4R)-3-(2,2,2-trifluoroethoxy)-4-(3-(trifluoromethyl)phenoxy)piperidin-1-yl)-5,6-dihydro-1,5-naphthyridine-2-carbonitrile] | – | – | 51 | EC50 [1, 6]: 6.2 µM
COc1ccc2c(n1)c(N1CCC(Oc3ccc(OC(F)(F)F)cc3)CC1)c(C#N)c(=O)n2C [Example 48, 6-methoxy-1-methyl-2-oxo-4-(4-(4-(trifluoromethoxy)phenoxy)piperidin-1-yl)-1,2-dihydro-1,5-naphthyridine-3-carbonitrile] | – | – | – | IC50 (DGKα): 2.7 µM; EC50 (naïve human CD8 T cells): 0.13 µM; EC50 [2]: 6.4 µM; IC50 (human DGKζ): 3.4 µM; IC50 [3]: 0.27 µM
